According to patent US20230146455A1, “TREATMENT OF INFLAMMATORY DISEASES WITH PEPTIDES AND PHARMACEUTICAL COMPOSITIONS” (Yuyu Pharma, Inc., priority 2020, published 2023):
Where “and” joins values, the source holds several entries; their conditions need not be identical. Equal values may be shown once. Where a SMILES comes first, the peptide text is derived from it. [ ]: non-standard residue; d: D form. Hyp = O=C(O)[C@@H]1C[C@@H](O)CN1

System: VEGF-A
Assay: Example 9 Luminex, LPS hPBMCs: VEGF-A
Assay type: cell-based, human
Protocol: Treatment Human PBMCs were pretreated with YY-101, YDE-011 and YDE-043 or reference compound; Xiidra® at various concentration (ranging from 1 nM to 100 uM) for 2 h before stimulation. An equal volume of 0.5% DMSO was used as a vehicle control. Then, the cells were treated with LPS at 5 ug/ml. The supernatants from treated cells were harvested at 24 h and placed in a 96 well for Luminex cytokine & chemokine profiling using a Luminex 200 multiplex assay (Luminex; R&D system, USA).
The main study arm with triplicate wells per group in a 24-well plate: • 1. Blank • 2. PBMC: 0.5% DMSO • 3. PBMC+LPS (5 ug/ml) • 4. PBMC+YY-101 100 uM • 5. PBMC+YY-101 10 uM • 6. PBMC+YY-101 1 uM • 7. PBMC+YY-101 0.1 uM • 8. PBMC+YY-101 0.01 uM • 9. PBMC+LPS (5 ug/ml)+Xiidra®100 uM • 10. PBMC+LPS (5 ug/ml)+Xiidra® 10 uM • 11. PBMC+LPS (5 ug/ml)+Xiidra® 1 uM • 12. PBMC+LPS (5 ug/ml)+Xiidra®0.1 uM • 13. PBMC+LPS (5 ug/ml)+Xiidra®0.01 uM • 14. PBMC+LPS (5 ug/ml)+Xiidra®0.001 uM • 15. PBMC+LPS (5 ug/ml)+YY-101 100 uM • 16. PBMC+LPS (5 ug/ml)+YY-101 10 uM • 17. PBMC+LPS (5 ug/ml)+YY-101 1 uM • 18. PBMC+LPS (5 ug/ml)+YY-101 0.1 uM • 19. PBMC+LPS (5 ug/ml)+YY-101 0.01 uM • 20. PBMC+LPS (5 ug/ml)+YY-101 0.001 uM • 21. PBMC+LPS (5 ug/ml)+YDE-011 100 uM • 22. PBMC+LPS (5 ug/ml)+YDE-011 10 uM • 23. PBMC+LPS (5 ug/ml)+YDE-011 1 uM • 24. PBMC+LPS (5 ug/ml)+YDE-011 0.1 uM • 25. PBMC+LPS (5 ug/ml)+YDE-011 0.01 uM • 26. PBMC+LPS (5 ug/ml)+YDE-011 0.001 uM • 27. PBMC+LPS (5 ug/ml)+YDE-043 100 uM • 28. PBMC+LPS (5 ug/ml)+YDE-043 10 uM • 29. PBMC+LPS (5 ug/ml)+YDE-043 1 uM • 30. PBMC+LPS (5 ug/ml)+YDE-043 0.1 uM • 31. PBMC+LPS (5 ug/ml)+YDE-043 0.01 uM • 32. PBMC+LPS (5 ug/ml)+YDE-043 0.001 uM
Multiplex assay was used to measure 30 cytokines and chemokines. The 1:2, 1:10 and 1:200 diluted cell supernatant and serial dilution of the standard were dispensed into a 96 well plate at 50 ul/well. Then, the pre-mixed cocktail of antibody-coated magnetic beads was dispensed at 50 ul/well and incubated at room temperature for 2 h in a horizontal orbital microplate shaker at 800±500 rpm. The beads were washed using a magnetic device to prevent loss. The biotin-antibody was dispensed in 50 ul of each well and incubated at room temperature for 1 h in a shaker at 800±500 rpm. After washing, streptavidin-PE was added at 50 ul/well and incubated at room temperature for 30 min in a shaker under the same conditions. Finally, after washing, wash buffer (100 ul/well) was added to the plate and incubated in a shaker for 2 min. The Luminex™ 200 setting were set according to the manufacturer's protocol. The data was calculated with a standard five-parameter logistic nonlinear regression analysis of the data (xPonent software 4.2, USA). The levels of cytokine/chemokine are normalized to the live cell counts (1×10^5 cells/mL) and presented as concentrations per mL (pg/mL or ng/mL).

[1] = PBMC + LPS(5 ug/ml) + test article 0.001 uM, Mean
[2] = PBMC + LPS(5 ug/ml) + test article 0.001 uM, single replicates
[3] = PBMC + LPS(5 ug/ml) + test article 0.01 uM, Mean
[4] = PBMC + LPS(5 ug/ml) + test article 0.01 uM, single replicates
[5] = PBMC + LPS(5 ug/ml) + test article 0.1 uM, Mean
[6] = PBMC + LPS(5 ug/ml) + test article 0.1 uM, single replicates
[7] = PBMC + LPS(5 ug/ml) + test article 1 uM, Mean
[8] = PBMC + LPS(5 ug/ml) + test article 1 uM, single replicates
[9] = PBMC + LPS(5 ug/ml) + test article 10 uM, Mean
[10] = PBMC + LPS(5 ug/ml) + test article 10 uM, single replicates
[11] = PBMC + LPS(5 ug/ml) + test article 100 uM, Mean
[12] = PBMC + LPS(5 ug/ml) + test article 100 uM, single replicates
[13] = PBMC + test article 0.01 uM, no LPS, Mean
[14] = PBMC + test article 0.01 uM, no LPS, single replicates
[15] = PBMC + test article 0.1 uM, no LPS, Mean
[16] = PBMC + test article 0.1 uM, no LPS, single replicates
[17] = PBMC + test article 1 uM, no LPS, Mean
[18] = PBMC + test article 1 uM, no LPS, single replicates

Structure (SMILES): CC(C)C[C@H](NC(=O)CNC(=O)[C@H](CC(=O)O)NC(=O)[C@H](CCC(N)=O)NC(=O)CNC(=O)[C@@H]1C[C@@H](O)CN1)C(=O)N[C@@H](C)C(=O)NCC(=O)N1CCC[C@H]1C(=O)N[C@@H](CCCCN)C(=O)O [YY-101] (H-[Hyp]GQDGLAGPK-OH; N-terminus and C-terminus assumed)
- Concentration, Bead name: VEGF-A [1]: 3.0 pg/mL
- MFI, Bead name: VEGF-A [1]: −0.9
- conc/live cell, Bead name: VEGF-A [1]: 0.4 pg/10^5
- Concentration, Bead name: VEGF-A [2]: 2.2 pg/mL and 6.1 pg/mL and 0.6 pg/mL
- MFI, Bead name: VEGF-A [2]: −1.3 and 0.3 and −1.8
- conc/live cell, Bead name: VEGF-A [2]: 0.4 pg/10^5 and 0.9 pg/10^5 and 0.1 pg/10^5
- Concentration, Bead name: VEGF-A [3]: 0.6 pg/mL
- MFI, Bead name: VEGF-A [3]: −3.1
- conc/live cell, Bead name: VEGF-A [3]: 0.0 pg/10^5
- Concentration, Bead name: VEGF-A [4]: 0.6 pg/mL
- MFI, Bead name: VEGF-A [4]: −1.8 and −3.8 (2×)
- conc/live cell, Bead name: VEGF-A [4]: 0.1 pg/10^5 and 0.0 pg/10^5 (2×)
- Concentration, Bead name: VEGF-A [5]: 2.6 pg/mL
- MFI, Bead name: VEGF-A [5]: −1.1
- conc/live cell, Bead name: VEGF-A [5]: 0.4 pg/10^5
- Concentration, Bead name: VEGF-A [6]: 3.6 pg/ml (2×) and 0.6 pg/ml
- MFI, Bead name: VEGF-A [6]: −0.8 (2×) and −1.8
- conc/live cell, Bead name: VEGF-A [6]: 0.6 pg/10^5 (2×) and 0.1 pg/10^5
- Concentration, Bead name: VEGF-A [7]: 2.9 pg/mL
- MFI, Bead name: VEGF-A [7]: −1.4
- conc/live cell, Bead name: VEGF-A [7]: 0.3 pg/10^5
- Concentration, Bead name: VEGF-A [8]: 2.2 pg/mL and 3.6 pg/mL
- MFI, Bead name: VEGF-A [8]: −2.3 and −1.3 and −0.8
- conc/live cell, Bead name: VEGF-A [8]: 0.0 pg/10^5 and 0.3 pg/10^5 and 0.6 pg/10^5
- Concentration, Bead name: VEGF-A [9]: 2.7 pg/mL
- MFI, Bead name: VEGF-A [9]: −1.1
- conc/live cell, Bead name: VEGF-A [9]: 0.4 pg/10^5
- Concentration, Bead name: VEGF-A [10]: 2.2 pg/ml (2×) and 3.6 pg/ml
- MFI, Bead name: VEGF-A [10]: −1.3 (2×) and −0.8
- conc/live cell, Bead name: VEGF-A [10]: 0.4 pg/10^5 and 0.3 pg/10^5 and 0.5 pg/10^5
- Concentration, Bead name: VEGF-A [11]: 4.3 pg/mL
- MFI, Bead name: VEGF-A [11]: −0.4
- conc/live cell, Bead name: VEGF-A [11]: 0.7 pg/10^5
- Concentration, Bead name: VEGF-A [12]: 6.1 pg/ml (2×) and 0.6 pg/ml
- MFI, Bead name: VEGF-A [12]: 0.3 (2×) and −1.8
- conc/live cell, Bead name: VEGF-A [12]: 1.0 pg/10^5 (2×) and 0.1 pg/10^5
- Concentration, Bead name: VEGF-A [13]: 8.4 pg/mL
- MFI, Bead name: VEGF-A [13]: 1.3
- conc/live cell, Bead name: VEGF-A [13]: 1.7 pg/10^5
- Concentration, Bead name: VEGF-A [14]: 10.7 pg/mL and 6.1 pg/mL
- MFI, Bead name: VEGF-A [14]: 2.3 and 0.3
- conc/live cell, Bead name: VEGF-A [14]: 2.1 pg/10^5 and 1.3 pg/10^5
- Concentration, Bead name: VEGF-A [15]: 7.3 pg/mL
- MFI, Bead name: VEGF-A [15]: 0.8
- conc/live cell, Bead name: VEGF-A [15]: 1.4 pg/10^5
- Concentration, Bead name: VEGF-A [16]: 6.1 pg/mL and 8.5 pg/mL
- MFI, Bead name: VEGF-A [16]: 0.3 and 1.3
- conc/live cell, Bead name: VEGF-A [16]: 1.4 pg/10^5 and 1.5 pg/10^5
- Concentration, Bead name: VEGF-A [17]: 7.3 pg/mL
- MFI, Bead name: VEGF-A [17]: 0.8
- conc/live cell, Bead name: VEGF-A [17]: 1.3 pg/10^5
- Concentration, Bead name: VEGF-A [18]: 8.5 pg/mL and 6.1 pg/mL
- MFI, Bead name: VEGF-A [18]: 1.3 and 0.3
- conc/live cell, Bead name: VEGF-A [18]: 1.5 pg/10^5 and 1.1 pg/10^5
- Concentration, Bead name: VEGF-A (PBMC + test article 10 uM, no LPS, Mean): 7.9 pg/mL
